Results: article PMC4110683 (Chemistry and physics of lipids, 2013)
Converted amounts (≈) assume the structure as drawn. Like-named read-outs stand apart in the source and are kept apart here.

How the values were obtained:
M. smegmatis mc^2 155 = conditions: ref Morbidoni et al., 2006; cited from earlier work
LdTopIB = conditions: ref Carballeira et al., cited from earlier work
[1] = tested on: Leishmania infantum promastigotes; conditions: read-out: IC50 Leishmania infantum promastigotes; ref Carballeira et al., 2012; cited from earlier work
[2] = tested on: L. donovani promastigotes; conditions: cited from earlier work; for IC50: read-out: IC50 L. donovani promastigotes, 2012; for IC50 / EC50 L. donovani promastigotes / Effectiveness towards L. donovani: ref Carballeira et al.; for EC50 L. donovani promastigotes / Effectiveness towards L. donovani: 2009; for Motility of L. donovani promastigotes: at levels of 100 μg/mL, ref Cunningham et al., 1972; for Motility of L. donovani promastigotes / Effectiveness towards L. donovani: in words; for MIC L. donovani promastigotes: ref Chaudhuri et al., 1986
PfFabI [3] = molecular target: T1, PfFabI (Plasmodium falciparum, UniProt Q9BH77); test: Inhibition of PfFabI; assay type: biochemical
T1 sequence (Q9BH77 22-432): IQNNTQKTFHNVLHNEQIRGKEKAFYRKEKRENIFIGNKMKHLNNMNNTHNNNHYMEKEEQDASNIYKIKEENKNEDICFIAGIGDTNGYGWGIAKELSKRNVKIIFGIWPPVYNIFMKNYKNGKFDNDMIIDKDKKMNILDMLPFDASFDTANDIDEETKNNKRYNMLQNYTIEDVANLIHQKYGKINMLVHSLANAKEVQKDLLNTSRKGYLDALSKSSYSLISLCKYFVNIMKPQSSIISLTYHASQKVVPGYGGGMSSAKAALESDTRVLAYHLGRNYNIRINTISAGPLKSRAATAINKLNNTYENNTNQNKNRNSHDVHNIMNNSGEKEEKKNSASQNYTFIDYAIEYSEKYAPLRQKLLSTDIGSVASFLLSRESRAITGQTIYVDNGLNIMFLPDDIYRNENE

Escherichia coli = conditions: in words; ref Konthikamee et al., 1982; cited from earlier work
PfFabI [4] = molecular target: T1, PfFabI; conditions: with respect to crotonyl-CoA and the cofactor NADH; ref Tasdemir et al., 2010; cited from earlier work
[5] = tested on: hepatoma 7288 (HTC) cells; conditions: ref Upreti et al., 1981; cited from earlier work
PfFabG = PfFabG (Plasmodium falciparum, UniProt Q8I2S7); test: biochemical
Staphylococcus aureus = conditions: ref Konthikamee et al., 1982; cited from earlier work
PfFabZ [6] = molecular target: T2, PfFabZ (Plasmodium falciparum, UniProt Q965D7); conditions: with respect to the substrate; ref Tasdemir et al., 2010; cited from earlier work
T2 sequence (Q965D7 19-230): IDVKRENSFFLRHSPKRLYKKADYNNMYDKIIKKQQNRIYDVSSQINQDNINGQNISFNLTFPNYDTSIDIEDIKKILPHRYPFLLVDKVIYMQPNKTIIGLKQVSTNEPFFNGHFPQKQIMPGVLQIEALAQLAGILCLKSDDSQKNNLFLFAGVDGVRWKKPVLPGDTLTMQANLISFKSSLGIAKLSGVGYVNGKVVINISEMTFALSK

Bacteroides fragilis = conditions: ref Konthikamee et al., 1982; cited from earlier work
[7] = tested on: BALB/c murine macrophages; conditions: read-out: Murine macrophages BALB/c IC50; ref Carballeira et al., 2012; cited from earlier work
[8] = tested on: InhA, the enoyl-ACP reductase; conditions: in words; ref Morbidoni et al., 2006; cited from earlier work
hTopIB [9] = molecular target: T3, hTopIB (Homo sapiens, UniProt P11387); conditions: read-out: hTopIB EC50; relaxation activity; ref Carballeira et al., 2012; cited from earlier work
T3 sequence (P11387 1-765): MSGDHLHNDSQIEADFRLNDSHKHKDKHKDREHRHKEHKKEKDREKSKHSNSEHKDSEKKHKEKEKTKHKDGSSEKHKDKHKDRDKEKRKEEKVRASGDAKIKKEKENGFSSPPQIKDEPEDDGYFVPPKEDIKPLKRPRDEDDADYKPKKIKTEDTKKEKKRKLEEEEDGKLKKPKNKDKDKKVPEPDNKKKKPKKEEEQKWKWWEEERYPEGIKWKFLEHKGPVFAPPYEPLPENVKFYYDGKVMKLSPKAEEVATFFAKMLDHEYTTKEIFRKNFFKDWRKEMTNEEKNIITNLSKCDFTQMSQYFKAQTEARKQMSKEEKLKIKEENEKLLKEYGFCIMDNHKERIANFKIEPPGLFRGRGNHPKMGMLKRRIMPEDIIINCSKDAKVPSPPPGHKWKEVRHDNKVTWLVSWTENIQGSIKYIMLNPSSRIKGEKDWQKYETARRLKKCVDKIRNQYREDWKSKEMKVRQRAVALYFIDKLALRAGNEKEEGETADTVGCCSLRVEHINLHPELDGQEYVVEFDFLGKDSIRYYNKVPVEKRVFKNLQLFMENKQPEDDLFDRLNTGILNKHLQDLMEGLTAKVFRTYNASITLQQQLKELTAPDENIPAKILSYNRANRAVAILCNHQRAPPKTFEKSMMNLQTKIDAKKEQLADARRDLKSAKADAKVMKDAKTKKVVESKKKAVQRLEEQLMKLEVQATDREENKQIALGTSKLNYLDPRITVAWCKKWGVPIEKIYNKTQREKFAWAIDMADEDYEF

[10] = tested on: Mycobacterium tuberculosis H37Rv; conditions: ref Morbidoni et al., 2006; cited from earlier work
Neisseria flava = conditions: ref Konthikamee et al., 1982; cited from earlier work
hTopIB [11] = molecular target: T3, hTopIB; test: Inhibition of relaxation activity of hTopIB; assay type: biochemical
Pseudomonas aeruginosa = conditions: in words; ref Konthikamee et al., 1982; cited from earlier work
P. falciparum K1 [12] = test: Toxicity to P. falciparum K1 strain; assay type: cell-based, Plasmodium falciparum; conditions: Plasmodium falciparum, K1, read-out: IC50 P. falciparum K1
PfFabZ [13] = molecular target: T2, PfFabZ; test: Inhibition of PfFabZ; assay type: biochemical
[14] = tested on: FCR3 strain of P. falciparum; conditions: ref Krugliak et al., 1995; cited from earlier work
P. falciparum = conditions: in words; ref Kumaratilake et al., 1992; 1997; cited from earlier work
P. falciparum K1 [15] = conditions: ref Suksamrarn et al., 2005; cited from earlier work
[16] = read-out: LdTopIB EC50, relaxation activity, 2012

## CCCCCCCCCCCCCCCCCCCC#CC(=O)O [2-Docosynoic acid]
M. smegmatis mc^2 155
  MIC against M. smegmatis mc^2 155: >300 µM

## CCCCCCCCCC#CC(=O)O [2-Dodecynoic acid]
M. smegmatis mc^2 155
  MIC against M. smegmatis mc^2 155: >300 µM

## CCCCCCCCCCCCCCCCCC#CC(=O)O [2-Eicosynoic acid]
M. smegmatis mc^2 155
  MIC against M. smegmatis mc^2 155: >300 µM

## CCCCCCCCCCCCCC#CC(=O)O [2-HDA, 2-hexadecynoic acid]
LdTopIB; [16]
  EC50: 28.7 ± 1.3 µM
[1]
  IC50: 14.9 µM
[2]
  IC50: 17.8 µM
PfFabI [3]; read-out: IC50 PfFabI, Carballeira and Tasdemir, unpublished data
  IC50: 1.5 µM
Escherichia coli
  Effectiveness against Escherichia coli: not effective
PfFabI [4]
  Mode of inhibition of PfFabI: non-competitive
M. smegmatis mc^2 155
  MIC against M. smegmatis mc^2 155: 10 µM (≈ 2.52 µg/mL)
[5]
  LD50, growth of cultured hepatoma 7288 (HTC) cells: 35 to 85 µM
PfFabG; read-out: IC50 PfFabG, Carballeira and Tasdemir, unpublished data
  IC50: 13.9 µM
Staphylococcus aureus
  MIC Staphylococcus aureus: 21.4 µM (≈ 5.4 µg/mL)
PfFabZ [6]
  Mode of inhibition of PfFabZ: competitively inhibit
Bacteroides fragilis
  MIC Bacteroides fragilis: 21.4 µM (≈ 5.4 µg/mL)
[7]
  IC50: > 100 µM
[8]
  Inhibition of InhA: able to inhibit
hTopIB [9]
  EC50: > 100 µM
[10]
  MIC against Mycobacterium tuberculosis H37Rv: 20 to 25 µM
Neisseria flava
  MIC Neisseria flava: 21.4 µM (≈ 5.4 µg/mL)
hTopIB [11]
  IC50: 361 ± 1 µM
Pseudomonas aeruginosa
  Effectiveness against Pseudomonas aeruginosa: not effective
P. falciparum K1 [12]
  IC50: 41.2 µM

## CCCCCCCCCCCCCCCCC#CC(=O)O [2-Nonadecynoic acid]
M. smegmatis mc^2 155
  MIC against M. smegmatis mc^2 155: 35 µM (≈ 10.3 µg/mL)
[10]
  MIC against Mycobacterium tuberculosis H37Rv: 20 to 25 µM

## CCCCCCCCCCCC#CC(=O)O [2-TDA, 2-tetradecynoic acid]
LdTopIB; [16]
  EC50: 67.8 ± 1.1 µM
[2]
  IC50: 24.7 µM
PfFabI [3]
  IC50: 5.3 µM
M. smegmatis mc^2 155
  MIC against M. smegmatis mc^2 155: 266 µM (≈ 59.7 µg/mL)
PfFabG
  IC50: 24.5 µM
[7]
  IC50: > 100 µM
hTopIB [9]
  EC50: > 100 µM
P. falciparum K1 [12]
  IC50: 122 µM
PfFabZ [13]
  IC50: 15.6 µM

## CCCCCCCCCCCCC#CCC(=O)O [3-Hexadecynoic acid]
M. smegmatis mc^2 155
  MIC against M. smegmatis mc^2 155: 20 µM (≈ 5.05 µg/mL)

## CCCCCCCCCCCCCCC#CCC(=O)O [3-Octadecynoic acid]
M. smegmatis mc^2 155
  MIC against M. smegmatis mc^2 155: 36 µM (≈ 10.1 µg/mL)

## CCCCCCCCCCCC#CCCC(=O)O [4-Hexadecynoic acid]
M. smegmatis mc^2 155
  MIC against M. smegmatis mc^2 155: 30 µM (≈ 7.57 µg/mL)

## CCCCCCCCCCCCCC#CCCC(=O)O [4-Octadecynoic acid]
M. smegmatis mc^2 155
  MIC against M. smegmatis mc^2 155: >300 µM

## CCCCCCCCCCC#CCCCC(=O)O [5-Hexadecynoic acid]
M. smegmatis mc^2 155
  MIC against M. smegmatis mc^2 155: 80 µM (≈ 20.2 µg/mL)

## CCCCCCCCCCCCC#CCCCC(=O)O [5-Octadecynoic acid]
M. smegmatis mc^2 155
  MIC against M. smegmatis mc^2 155: 360 µM (≈ 101 µg/mL)

## CCCCCCCCCCC#CCCCCC(=O)O [6-heptadecynoic, 6-heptadecynoic acid]
[2]
  EC50 L. donovani promastigotes: 1 to 6 µg/mL

## CCCCCCCCCCCCCC#CCCCCC(=O)O [6-icosynoic acid]
LdTopIB; read-out: EC50 LdTopIB, 2009
  EC50: 36 to 49 µM
[2]
  EC50 L. donovani promastigotes: 1 to 6 µg/mL

## CCCCCCCCCCCCCCCC(=O)O [16:0, hexadecanoic acid, reference compound]
[2]
  Motility of L. donovani promastigotes: inhibited the motility
PfFabI [3]
  IC50: > 100 µM
PfFabG
  IC50: > 100 µM
P. falciparum K1 [12]
  IC50: > 100 µM
PfFabZ [13]
  IC50: > 100 µM

## CC[C@@]1(O)C(=O)OCc2c1cc1n(c2=O)Cc2cc3ccccc3nc2-1 [CPT, camptothecin, reference compound]
LdTopIB; [16]
  EC50: 0.67 ± 0.08 µM
[7]
  IC50: 0.62 ± 0.13 µM

## CCCCC/C=C\C/C=C\CCCCCCCC(=O)O [linoleic acid]
[14]
  IC50 killing FCR3 strain of P. falciparum: 76 µg/mL

## CC/C=C\C/C=C\C/C=C\CCCCCCCC(=O)O [linolenic acid]
[14]
  IC50 killing FCR3 strain of P. falciparum: 92 µg/mL

## CCCCCCCCCC(=O)O [n-decanoic acid]
[2]
  Motility of L. donovani promastigotes: inhibited the motility

## CCCCCCCCCCCC(=O)O [n-dodecanoic acid]
[2]
  Motility of L. donovani promastigotes: inhibited the motility

## CCCCCCCCCCCCCCCCCCCC(=O)O [n-eicosanoic acid, reference compound]
[2]
  Effectiveness towards L. donovani: not effective

## CCCCCCCCCCCCCCCCC(=O)O [n-heptadecanoic acid, reference compound]
[2]
  Effectiveness towards L. donovani: not effective

## CCCCCCCCCCCCCCCCCC(=O)O [octadecanoic acid]
[2]
  MIC L. donovani promastigotes: 1390 µM (≈ 395 µg/mL)

## CCCCCCCC/C=C\CCCCCCCC(=O)O [oleic acid, 9-cis-Octadecenoic acid, reference compound]
[2]
  Motility of L. donovani promastigotes: no effect
  MIC L. donovani promastigotes: 90 µM (≈ 25.4 µg/mL)
[14]
  IC50 killing FCR3 strain of P. falciparum: 23 µg/mL
P. falciparum
  Parasite killing of P. falciparum: negligible parasite killing

## C=CCCC#CCCCCCCCCCCCC(=O)O [scleropyric acid]
P. falciparum K1 [15]
  IC50 K1 multidrug-resistant P. falciparum: 7.2 µg/mL (≈ 25.9 µM)
